Assay [1] is described as follows: Cytotoxicity against human MCF7/ADR cells. It is filed as functional. As to conditions: NCI/ADR-RES, read-out: ED50 (the source's name).
Assay [2] is described as follows: Cytotoxicity against human MCF7/ADR cells assessed as ratio of drug concentration to drug ED100 at 1.0 ug/ml after 6 days by BCA assay. It is filed as functional, NCI/ADR-RES.
Assay [3] in a line: Cytotoxicity against human MCF7/ADR cells assessed as ratio of drug concentration to drug ED100 at 0.8 ug/ml after 6 days by BCA assay. The format is functional, NCI/ADR-RES.
A short description of assay [4]: Cytotoxicity against human MCF7/ADR cells assessed as ratio of drug concentration to drug ED100 at 0.6 ug/ml after 6 days by BCA assay. The format is functional, NCI/ADR-RES.
Assay [5] can be described thus: Cytotoxicity against human MCF7/ADR cells assessed as ratio of drug concentration to drug ED100 at 0.3 ug/ml after 6 days by BCA assay. The format is functional, NCI/ADR-RES.
Assay [6] in a line: Cytotoxicity against human MCF7/ADR cells assessed as ratio of drug concentration to drug ED100 at 0.15 ug/ml after 6 days by BCA assay. The format is functional, NCI/ADR-RES.
The subject of assay [7] is MCF/ADR. Put plainly: Reversal of P-gp-mediated multidrug resistance in human MCF/ADR cells assessed as ratio of doxorubicin ED50 without drug to doxorubicin ED50 with drug at 1.0 ug/ml after 6 days by BCA assay. It is filed as cell-based.
In assay [8] the test system is MCF/ADR. The assay is described as follows: Reversal of P-gp-mediated multidrug resistance in human MCF/ADR cells assessed as ratio of doxorubicin ED50 without drug to doxorubicin ED50 with drug at 0.8 ug/ml after 6 days by BCA assay. It is filed as cell-based.
In assay [9] the test system is MCF/ADR. The assay is described as follows: Reversal of P-gp-mediated multidrug resistance in human MCF/ADR cells assessed as ratio of doxorubicin ED50 without drug to doxorubicin ED50 with drug at 0.6 ug/ml after 6 days by BCA assay. It is filed as cell-based.
Assay [10] deals with MCF/ADR. The assay is described as follows: Reversal of P-gp-mediated multidrug resistance in human MCF/ADR cells assessed as ratio of doxorubicin ED50 without drug to doxorubicin ED50 with drug at 0.3 ug/ml after 6 days by BCA assay. The format is cell-based.
The subject of assay [11] is MCF/ADR. Put plainly: Reversal of P-gp-mediated multidrug resistance in human MCF/ADR cells assessed as ratio of doxorubicin ED50 without drug to doxorubicin ED50 with drug at 1.15 ug/ml after 6 days by BCA assay. The format is cell-based.
Assay [12] is described as follows: Cytotoxicity against human MCF7/ADR cells assessed as ratio of drug concentration to drug ED100 at 10 ug/ml after 6 days by BCA assay. It is filed as functional, NCI/ADR-RES.
The nature of assay [13]: Cytotoxicity against human MCF7/ADR cells assessed as ratio of drug concentration to drug ED100 at 8 ug/ml after 6 days by BCA assay. The format is functional, NCI/ADR-RES.
Assay [14] is described as follows: Cytotoxicity against human MCF7/ADR cells assessed as ratio of drug concentration to drug ED100 at 6 ug/ml after 6 days by BCA assay. It is filed as functional, NCI/ADR-RES.
A short description of assay [15]: Cytotoxicity against human MCF7/ADR cells assessed as ratio of drug concentration to drug ED100 at 3 ug/ml after 6 days by BCA assay. It is filed as functional, NCI/ADR-RES.
The nature of assay [16]: Cytotoxicity against human MCF7/ADR cells assessed as ratio of drug concentration to drug ED100 at 1.5 ug/ml after 6 days by BCA assay. It is filed as functional, NCI/ADR-RES.

Among the data in ChEMBL document CHEMBL1159299, “Multidrug-resistance modulators from Stephania japonica” (1997) are EC50, Activity and Ratio ED50 values, retold here.

≈ marks a conversion by molar mass, not a printed value.

For `COc1ccc2cc1Oc1ccc(cc1)C[C@H]1c3c(cc(OC)c4c3Oc3cc5c(cc3O4)CCN(C)[C@H]5C2)CCN1C` [ISOTRILOBINE], the EC50 in assay [1] turned out to be 2 µg/mL (≈ 3.47 µM). Moreover, the Activity is on record as 0.2 in [2]; 0.16 in [3]; 0.12 in assay [4]; 0.06 in [5]; 0.03 in assay [6]. The Ratio ED50 in assay [7] turned out to be 70; in [8] it was 57; in assay [9] it was 32; in assay [10], 10; in [11], 5.
Consider `COc1ccc2cc1Oc1ccc(cc1)C[C@@H]1NCCc3cc(OC)c4c(c31)Oc1cc3c(cc1O4)CCN(C)[C@H]3C2` [TRILOBINE], for which, in assay [1], the EC50 came to 1 µg/mL (≈ 1.78 µM). Moreover, the Activity was determined as 0.17 in assay [2]; 0.13 in [3]; 0.1 in assay [4]; 0.05 in assay [5]; 2 in assay [7]; 2 in [8]. Besides, the Activity in assay [9] is 1.5; in assay [10] it was 1.
As for `COc1ccc(CCN(C)CCCC(C#N)(c2ccc(OC)c(OC)c2)C(C)C)cc1OC` (stereo not given) [VERAPAMIL], the Activity came to 0.19 in assay [12]; 0.15 in assay [13]; 0.12 in assay [14]; 0.06 in [15]; 0.03 in assay [16].
